The term melting point denotes the temperature of the solid-liquid transition.

In turn, `CCOCc1ccccc1-c1cnc(NC(=O)C(C)NC(=O)Cc2cc(F)cc(F)c2)s1` (stereo not drawn) [compound 3, 2-{[2-(3,5-difluorophenyl)acetyl]amino}-N-{5-[2-(ethoxymethyl)phenyl]-1,3-thiazol-2-yl}propanamide] showed a melting point of 165 °C.
The result for `CCC[C@H](NC(=O)C(F)c1cc(F)cc(F)c1)C(=O)Nc1ncc(-c2ccccc2COC2CCCCC2)s1` (stereo partly drawn) [compound 64, (2S)-N-(5-{2-[(cyclohexyloxy)methyl]phenyl}-1,3-thiazol-2-yl)-2-{[2-(3,5-difluorophenyl)-2-fluoroacetyl]amino}pentanamide] reads 139 °C.
The result for `C[C@H](NC(=O)Cc1ccc(F)c(F)c1)C(=O)Nc1ncc(-c2ccccc2COC2CCCCC2)s1` [compound 30, (2S)-N-(5-{2-[(cyclohexyloxy)methyl]phenyl}-1,3-thiazol-2-yl)-2-{[2-(3,4-difluorophenyl)acetyl]amino}-propanamide] reads 136 °C; that for `CC(C)C[C@H](NC(=O)Cc1cc(F)cc(F)c1)C(=O)Nc1ncc(-c2ccccc2COC2CCCCC2)s1` [compound 36, (2S)-N-(5-{2-[(cyclohexyloxy)methyl]phenyl}-1,3-thiazol-2-yl)-2-{[2-(3,5-difluorophenyl)acetyl]amino}-4-methylpentanamide], 67 °C.
For `C[C@H](NC(=O)Cc1cccc(Cl)c1)C(=O)Nc1ncc(-c2ccccc2COC2CCCCC2)s1` [compound 18, (2S)-2-{[2-(3-chlorophenyl)acetyl]amino}-N-{5-{2-[(cyclohexyloxy)methyl]phenyl}-1,3-thiazol-2-yl}propanamide] the value was 96 °C; for `C[C@H](NC(=O)Cc1cc(F)cc(F)c1)C(=O)Nc1ncc(-c2cccc(COC3CCCCC3)c2)s1` [compound 24, (2S)-N-(5-{3-[(cyclohexyloxy)methyl]phenyl}-1,3-thiazol-2-yl)-2-{[2-(3,5-difluorophenyl)acetyl]amino}-propanamide], 123 °C; for `C[C@H](NC(=O)Cc1cc(F)cc(F)c1)C(=O)Nc1ncc(-c2cccc(COCC3CCCCC3)c2)s1` [compound 43, (2S)-N-(5-{3-[(cyclohexylmethoxy)methyl]phenyl}-1,3-thiazol-2-yl)-2-{[2-(3,5-difluorophenyl)acetyl]amino}propanamide], 144 °C.
In the case of `Cc1nc(NC(=O)[C@H](C)NC(=O)Cc2cc(F)cc(F)c2)sc1-c1ccccc1COC(C)C` [compound 27, (2S)-2-{[2-(3,5-difluorophenyl)acetyl]amino}-N-{5-[2-(isopropoxymethyl)phenyl]-4-methyl-1,3-thiazol-2-yl}propanamide], the melting point was determined as 74 °C.
For `C[C@H](NC(=O)C(=O)c1cc(F)cc(F)c1)C(=O)Nc1ncc(-c2ccccc2COC2CCCCC2)s1` [Compound No. 61, (2S)-N-(5-{2-[(cyclohexyloxy)methyl]phenyl}-1,3-thiazol-2-yl)-2-{[2-(3,5-difluorophenyl)-2-oxoacetyl]-amino}propanamide] the value was 78 °C.

(Values after US7288659B2, “Acylaminothiazole derivatives, their preparation and therapeutic use” (Sanofi-Aventis, priority 2001, dated 2007).)
